In US20180051284A1, “INHIBITORS OF MIR-17-92 CLUSTER FOR ANTI-TUMOR ACTIVITY IN MULTIPLE MYELOMA AND OTHER MALIGNANCIES” (priority 2014, published 2018):
l = locked nucleic acid (LNA); d = 2'-deoxy (DNA)

Columns and labels:
AMO1 xenografts = assay: In vivo tumor growth of AMO1 xenografts (IVIS); design: species or system mice; details: I.P. 2 mg/kg at day 1-4-8-15-22
From the text: (§1) Male CB-17 severe combined immunodeficient (SCID) mice (6- to 8-weeks old; Harlan Laboratories, Inc., Indianapolis) were housed and monitored in our Animal Research Facility. All experimental procedures and protocols had been approved by the Institutional Ethical Committee (Magna Graecia University) and conducted according to protocols approved by the National Directorate of Veterinary Services (Italy). In accordance with institutional guidelines, mice were sacrificed when tumors reached 2 cm in diameter or in the event of paralysis or major compromise, to prevent unnecessary suffering. Animal experimental procedures have been performed as in previous reports (Di Martino et al, CCR 2012; Di Martino el al. Oncotarget 2013, Di Martino et al PlosOne 2014). […] Mice were also inoculated with 5×10^6 luciferase gene-marked U266, AMO-1, AMO-1/abzb, treatments were performed intraperitoneally (i.p.), and tumor volume were measured by IVIS Lumina II.
In vivo anti-MM activity of LNA gapmer_06 was next evaluated in NOD/SCID mice bearing subcutaneous AMO1 xenografts. […] Tumors volume were measured using IVIS LUMINA II Imaging We next evaluate the in vivo activity in Bortezomib-refractory model of human MM. […] Tumors volume were measured using IVIS LUMINA II Imaging System.

[1] = system: PTEN, AKT, ERK, E2F-1, p14/ARF-p53 and intrinsic apoptotic pathway proteins in NCI-H929 cells; assay: Western blot analysis of molecular perturbations after gymnotic exposure; format: cell-based, Human
Protocol: SDS-PAGE and Western Blotting (WB) were performed according to standard protocols. Briefly, cells were lysed by lysis buffer containing 15mM Tris/HCl pH 7.5, 120mM NaCl, 25mM KCI, 1mM EDTA, 0.5% Triton 100, Halt Protease Inhibitor Single-Use cocktail (100X, Thermo Scientific). Whole cells lysates (50 μg per lane) were separated using 4-12% Novex Bis-Tris SDS-acrylamide gels (Invitrogen), electro-transferred on Nitrocellulose membranes (Bio-Rad), and immunoblotted with the antibodies. Membranes were washed 3 times in PBS-Tween and then incubated with a secondary antibody conjugated with horseradish peroxidase in 0.5% milk for 2 hours at room temperature. Chemiluminescence was detected using Western Blotting Luminol Reagent (sc-2048, Santa Cruz, Dallas, Tex., USA). Signal intensity was quantified with the Quantity One Analyzing System (Bio-Rad).
MiRNAs are a class of non coding RNAs that regulate gene expression at post-transcriptional levels. Each miRNA may regulate the expression of several (hundreds) genes. Since LNA/DNA gapmers inhibit the biogenisis of the six members of the miR-17-92 cluster, a wide perturbation in the expression of target genes is predictable. Therefore, we gymnotically exposed NCI-H929 cells for 6 days to gapmer_06 or scrambled controls and, by western blotting, we analyzed molecular perturbations at protein levels.

INA-6 cells = assay: INA-6 SCID-hu model, serum shuIL-6R; format: in vivo, mice; details: I.P. 2 mg/kg at day 1-4-8-15-22; compared to controls
Protocol: The SCID-hu model was performed implanting human fetal long bone grafts sc into SCID mice (SCID-hu). Four weeks following bone implantation, 2.5×10^6 INA-6 multiple myeloma cells were injected directly into the human bone implant. Because INA-6 cells release soluble human IL-6 receptor (shuIL-6R), we used this marker to monitor tumor growth in SCID-hu mice.
Mouse sera were serially monitored for shulL-6R levels by ELISA (Quantikine […]; R&D Systems). Mice developed detectable serum shuIL-6R ˜4 weeks following INA-6 cell injection and then were […]. Three days after the last injection, blood samples were collected and analyzed (R&D Systems).
The in vivo activity of gapmer_06 was also evaluate in a orthotopic model of human MM using U266 cells, to explore the efficacy in relation to the microenvironment. Orthotopic murine model was performed by the use of NOD/SCID mice intravenously injected with luciferase gene-marked U266 cells. Tumor growth was monitored using IVIS LUMINA II Imaging System. […] Engraftment was determined by sacrificing mice after 10 weeks and analyzing bone marrow for luciferase gene-marked U266 cells. […] Mice were treated I.P. with gapmer_06 at concentration of 2 mg/kg at day 1-4-8-15-22, and serum shulL-6R levels were serially determined as a marker of tumor growth.

U266 cells = assay: U266 orthotopic model of human MM (IVIS); format: in vivo, mice; details: I.P. 2 mg/kg at day 1-4-8-15-22; compared to controls
From the text: as §1, with “suffering.” for “suffering. Animal experimental procedures have been performed as in previous reports (Di Martino et al, CCR 2012; Di Martino el al. Oncotarget 2013, Di Martino et al PlosOne 2014).”
The in vivo activity of gapmer_06 was also evaluate in a orthotopic model of human MM using U266 cells, to explore the efficacy in relation to the microenvironment. […] Tumor growth was monitored using IVIS LUMINA II Imaging System. […] Engraftment was determined by sacrificing mice after 10 weeks and analyzing bone marrow for luciferase gene-marked U266 cells. […] Mice were treated I.P. with gapmer_06 at concentration of 2 mg/kg at day 1-4-8-15-22, and serum shulL-6R levels were serially determined as a marker of tumor growth.

[2] = system: RPMI-8226, KMS-12-BM and NCI-H929 cells; assay: Cell viability by flow cytometry of 7-AAD stained cells, gapmer versus single miRNA inhibitors; format: cell-based, Human; details: transfection with 25 nM
Protocol: Commercial miRNA inhibitors for miR-17a, miR-18a, miR-19a, miR-19b, miR-20a and miR-92a were purchased from Ambion (Applied Biosystems, Calif., U.S.).
(§2) 3×10^5 cells were transfected using Neon Transfection System (Invitrogen, Calif.,U.S.), (2 pulses at 1150, 30ms). The transfection efficiency evaluated by flow-cytometric analysis relative to a FAM dye—labeled anti-miR—negative control reached 85% to 90%.
(§3) 7-aminoactinomycin was used to evaluate cell viability. The staining was performed according to manufacturer's instructions.
To this aim, we transfected three different MM cell lines with 25 nM of either gapmer_06 or miRNA inhibitors from Ambion or RNase free water as control.

NCI-H929 cells = assay: Flow cytometry of 7-AAD stained cells after transfection; format: cell-based, Human; details: transfection 25 nM, as compared to RNase-free water
Protocol: as §2, §3

[3] = NCI-H929, 6 days gymnotic exposure, 2,5 μM

Substance: gapmer_06: LNA/DNA gapmer, SEQ ID 4 (14 mer): +T*+A*+C*T*T*G*C*T*T*G*G*+C*+T*+T; + LNA, * phosphorothioate (antisense TACTTGCTTGGCTT; sugars from the 5' end l3 d8 l3, all phosphorothioate, methylation of C not given here)
- tumor-growth inhibition relative to Bortezomib 1 mg/kg (AMO1 xenografts): almost comparable to Bortezomib effect
- tumor growth (IVIS tumor volume) (AMO1 xenografts; vs NaCl control): significant tumor-growth inhibition
- E2F-1 protein level (Western Blot) [1, 3]: strongly up-regulated
- anti-apoptotic proteins Bcl-2, Mcl-1 (Western Blot) [1, 3]: down-regulation of anti-apoptotic proteins
- caspase-3 cleavage (Western Blot) [1, 3]: caspase-3 cleavege
- p-AKT and p-ERK (phosphorylated/active forms, Western Blot) [1, 3]: reduction of the phopshorylated / active forms
- pro-apoptotic proteins Puma, Bak, Bax, Bid and Bim (Western Blot) [1, 3]: up-regulation of pro-apototic proteins
- PTEN protein level (Western Blot) ([1]; NCI-H929, 6 days gymnotic exposure, 2,5 μM, vs scrambled controls): strong up-regulation
- p14/ARF-p53 fail-safe axis (Western Blot) ([1]; p53-wild-type NCI-H929, 6 days gymnotic exposure, 2,5 μM): triggers the p14/ARF-p53 fail-safe axis
- tumor growth (serum shuIL-6R levels) (INA-6 cells): significant tumor-growth inhibition
- tumor growth (IVIS) (U266 cells): significant tumor-growth inhibition
- biological effect on cell viability (flow cytometry, 7-AAD) compared with single miRNA inhibitors [2]: strongest biological effects
- reduction of live cells (7-AAD) (NCI-H929 cells): 20%
